From patent US5648355A, “Method of treatment of endogenous, painful gastrointestinal conditions of non-inflammatory, non-ulcerative origin” (priority 1994, dated 1997)
Entries after “also recorded” stand apart in the source; their conditions may differ. Counter-ions that a name gives are not always drawn. Like-named read-outs stand apart in the source and are kept apart here.

Legend:
[1] = tested on: gastrointestinal mast cells; conditions: cited from earlier work
intracranial mast cells = conditions: cited from earlier work
rat mucosal mast cell = experiment: inhibition of rat mucosal mast cell degranulation in vitro (histamine release); format: cell-based; conditions: read-out: ID20 for histamine release
Source text: It is not necessary to the operability of the present invention that each member of the foregoing classes inhibits mast cell degranulation to the same extent. The ability of a particular substance to inhibit mast cell degranulation can be readily determined empirically. Thus, mast cells from rats (pieces of small intestine) or humans (intestinal biopsies) can be obtained; otherwise, RBL cells or immortalized human mucosal-like mast cells (HMC-1) are kept in culture. Any of these cells then are exposed to various concentrations of a putative inhibitory compound, to allow for action by the putative inhibitor at critical sites. Efficacy with respect to inhibition of mast cell degranulation then is ascertained; that is, the intestinal biopsies, explants or cultured cells thus treated are used as such or washed free of unbound test compound before exposure to a stimulus known to induce mast cell degranulation. A compound suitable for use in accordance with the present invention is recognized as one that prevents the stimulus from causing degranulation, presumably by binding to specific receptors or by inactivating a crucial step in the degranulation process.
A pharmaceutically effective dose for a given mast cell degranulation-blocking agent can be approximated by its ID20, which is the dose necessary to cause 20% inhibition in mast cells when applied to mast cells stimulated in vitro.

mast cell = conditions: effective dose causing 20% secretion; cited from earlier work
Type 1 phosphatase (PP1) = conditions: cited from earlier work
PP2A = conditions: cited from earlier work
PP2B = conditions: cited from earlier work
PP2C = conditions: cited from earlier work
irritable bowel syndrome = experiment: patient treatment, irritable bowel syndrome; format: in vivo, human; conditions: person; for pain: two months
[2] = tested on: rat mast cell protease II (RMCPII); experiment: rat-immobilization assay, stress model, intestinal RMCPII; format: in vivo; conditions: for rat intestinal RMCPII, pre-treated w/ ketotifen: 1 mg/kg i.p. twice daily for four days before immobilization, n = 3
Protocol: An assay by which efficacy of a mast cell degranulation-blocking agent can be tested systemically in the present context is the rat-immobilization assay, […] After the immobilization, a specific gastrointestinal mast cell mediator, rat mast cell protease II (RMCPII), is measured. This assay is accepted as a non-ulcerogenic model of stress. See Williams et al., Am. J. PhysioI. 253:582-86 (1987).
Ketotifen was administered intraperitoneally to rats (1 mg/kg body weight, twice daily) for four days prior to immobilization.

[3] = tested on: rat mucosal mast cell (MMC); experiment: RMCPII release from rat ileal explants, toxin A; format: cell-based; conditions: for RMCPII released, Ketotifen + Toxin A: ketotifen 1 mg/kg twice daily intragastrically 4 days, toxin A 5 μg/ml, n = 6
Protocol: The following experiment was performed in order to evaluate rat mucosal mast cell (MMC) degranulation by measuring rat mast cell protease II (RMCPII), a specific marker for MMC, and by electron microscopy.
Rats were treated intragastrically for four (4) days with either 0.5 ml of saline containing ketotifen (1 mg/kg twice daily) or saline alone. On day five, the animals were euthanized, ileum was removed and ileal explants were placed in organ culture. The explants were incubated at 37° C. in a medium containing either 5 μg/ml of toxin A in 0.01 ml of 50 mM Tris buffer, or buffer alone. Aliquots (50 μl) of medium were collected at specified times and RMCPII levels were determined. Results are expressed in Table 4 as nanograms of RMCPII released per milligram of tissue wet weight (Pothoulakis et al., Gastroenterology 105:701-707, 1993).

abdominal migraine [4] = conditions: in vivo; cited from earlier work
[5] = tested on: rat basophilic leukemia (RBL) cells; conditions: Kouretas et al. 1991; cited from earlier work
abdominal migraine [6] = experiment: patient treatment, abdominal migraine; format: in vivo, human; conditions: person; 3 μg/day subcutaneous, four months
Protocol: A patient with a two-year history of abdominal migraine, experienced constant gastrointestinal pain which was considerably worse immediately premenstrually. After treatment with the Gn-RH analogue LUPRON (3 μg/day subcutaneous injection) for four months, they were symptom-free.

[7] = inhibitory dose causing 20% inhibition, rat mucosal mast cells in vitro

For `O=C(O)c1cc(=O)c2c(OCC(O)COc3cccc4oc(C(=O)O)cc(=O)c34)cccc2o1` [disodium cromoglycate], the “inhibition of gastrointestinal / mucosal mast cells” value [1] is given as “the former but not the latter are inhibited; also recorded: do not have an inhibitory effect specifically on mucosal mast cells” and the “inhibition of intracranial mast cells” value (intracranial mast cells) is given as “inhibited”.
`CNCCc1c[nH]cn1` [N^α -methyl histamine] showed an IC20 (rat mucosal mast cell; Rattus norvegicus) of 100 nM.
`CN1CCC(=C2c3ccccc3CCc3cccnc32)CC1` [Azatadine] gave an IC20 (rat mucosal mast cell; [7]) of 100 nM.
In the case of `CN(C)CCOC(c1ccccc1)c1ccccc1` [Diphenhydramine], the “ED20 for Histamine Release” value (mast cell) is listed as 10^-3 M.
In the case of `C=C1[C@@H](O)[C@@H]2O[C@]3(CC[C@H](/C=C/[C@@H](C)[C@@H]4CC(C)=C[C@@]5(O[C@H](C[C@@](C)(O)C(=O)O)CC[C@H]5O)O4)O3)CC[C@H]2O[C@@H]1[C@@H](O)C[C@H](C)[C@H]1O[C@@]2(CCCCO2)CC[C@H]1C` [okadaic acid], the “effect on PP1” value (Type 1 phosphatase (PP1)) is given as “inactivated”, the “effect on PP2A” value (PP2A) is given as “inhibited” and the “effect on PP2B” value (PP2B) is given as “inhibited”. The “effect on PP2C” value (PP2C) was “insensitive”.
With `OCCOCCN1CCN(C(c2ccccc2)c2ccc(Cl)cc2)CC1` (centres unmarked) [hydroxyzine pamoate] the professional activities (irritable bowel syndrome; 50 mg/day, 4 months) was “able to resume their professional activities” and the “symptoms of irritable bowel syndrome” value (irritable bowel syndrome; 50 mg/day, 4 months) was “noticeable improvement of their symptoms”.
For `CN1CCC(=C2c3ccccc3CC(=O)c3sccc32)CC1` [Ketotifen], the IC20 (rat mucosal mast cell; Rattus norvegicus) was 10000 nM, the “rat intestinal RMCPII, pre-treated w/ ketotifen” value ([2]; 60 min) was 0.5 ng/mL and the “rat intestinal RMCPII, pre-treated w/ ketotifen” value ([2]; 120 min, p < 0.001 vs. immobilized) was 0.8 ng/mL. For the same molecule, the “secretion of RMCPII during stress (in words)” value ([2]; rat-immobilization assay) was “preventing secretion of RMCPII”, the “RMCPII released, Ketotifen + Toxin A” value ([3]; 30 min) was 2.9 ± 1.0 nanograms of RMCPII released p and the “RMCPII released, Ketotifen + Toxin A” value ([3]; 60 min, p < 0.05 vs Toxin A) was 3.0 ± 1.1 nanograms of RMCPII released p. For the same molecule, the “RMCPII released, Ketotifen + Toxin A” value ([3]; 120 min, p < 0.01 vs Toxin A) was 4.2 ± 0.9 nanograms of RMCPII released p, the “RMCPII released, Ketotifen + Toxin A” value ([3]; 180 min, p < 0.01 vs Toxin A) was 6.7 ± 1.9 nanograms of RMCPII released p and the “release of RMCPII from rat ileal explants (in words)” value ([3]; toxin A stimulus) was “effectively inhibits the release of RMCPII”. The pain (irritable bowel syndrome; 4 mg/day) was “their pain subsided significantly”.
For `O=c1[nH]c2ccccc2n1CCCN1CCN(C(c2ccccc2)c2ccccc2)CC1` [Oxatomide], the IC20 (rat mucosal mast cell; [7]) was 100 nM.
For `CC(CN1c2ccccc2Sc2ccccc21)N(C)C` (centres unmarked) [Promethazine], the “ED20 for Histamine Release” value (mast cell) is given as 10^-4 M.
In the case of `CC(C)NCC(O)COc1cccc2ccccc12` (centres unmarked) [propranolol], the “effect in abdominal migraine” value (abdominal migraine [4]) is given as “seem not to work”.
In the case of `CC(=O)[C@H]1CC[C@H]2[C@@H]3CCC4=CC(=O)CC[C@]4(C)[C@H]3CC[C@]12C` [progesterone], the “binding to RBL cells” value [5] is listed as “bind”.
For `CN(C)CCC(c1ccc(Cl)cc1)c1ccccn1` (centres unmarked) [Clorphenyramine], the “ED20 for Histamine Release” value (mast cell) is given as 10^-3 M.
With `CCNC(=O)[C@@H]1CCCN1C(=O)[C@H](CCCNC(=N)N)NC(=O)[C@H](CC(C)C)NC(=O)[C@@H](CC(C)C)NC(=O)[C@H](Cc1ccc(O)cc1)NC(=O)[C@H](CO)NC(=O)[C@H](Cc1c[nH]c2ccccc12)NC(=O)[C@H](Cc1c[nH]cn1)NC(=O)[C@@H]1CCC(=O)N1` [LUPRON, leuprolide acetate] the “symptoms of abdominal migraine” value (abdominal migraine [6]) was “symptom-free”.
In the case of `OCCOCCN1CCN(C(c2ccccc2)c2ccc(Cl)cc2)CC1` (centres unmarked) [hydroxyzine hydrochloride], the gastrointestinal discomfort (irritable bowel syndrome; 50 mg/day, three months) is reported as “almost completely eliminated”, the “professional and family responsibilities” value (irritable bowel syndrome; 50 mg/day, three months) is reported as “able to resume their professional and family responsibilities” and the “symptoms of irritable bowel syndrome on withdrawal” value (irritable bowel syndrome; attempted withdrawal) is reported as “marked increase in symptoms of irritable bowel syndrome”. The “symptoms on resuming the medication” value (irritable bowel syndrome; resumed medication) was “symptoms disappeared”.
In the case of `CC/C(=C(\c1ccccc1)c1ccc(OCCN(C)C)cc1)c1ccccc1` [tamoxifen citrate], the pain (irritable bowel syndrome; 40 mg/day orally) is reported as “substantially eliminated their pain”.
